According to US20260347325A1, “DIPHENYLPYRAZOLE COMPOUNDS AND THEIR USE” (INSTITUT NATIONAL DE LA SANTÉ ET DE LA RECHERCHE MÉDICALE, priority 2022, published 2026):

Assays:
[1] = system: Aβ1-40; test: Aβ1-40 secretion in SY5Y-APPwt cells (ELISA of conditioned media); assay type: cell-based; conditions: Homo sapiens, 24 h, inhibiting 50% of Aβ1-40 secretion, mean ± SD of at least two experiments in triplicate
Method: (§1) 2. Cell Culture and Treatments
(§2) The human neuroblastoma cell line SY5Y-APP^695WT was maintained in Dulbecco's modified Eagle medium (DMEM, high glucose, pyruvate—GIBCO, Life Technologies) supplemented with 10% fetal bovine serum, 2 mM L-glutamine, 1 mM non-essential amino acids and penicillin/streptomycin (GIBCO, Life Technologies) at 37°C in a 5% CO2 humidified incubator [36]. For compound treatment, a 10 mM stock solution was diluted in freshly supplemented DMEM medium to obtain the precise final concentration of the drug. Cells were plated at a density of 5.10^5 cells per well into 12-well plates and cultured with 1 mL supplemented DMEM cell medium for 24 h before compound exposure. The following day, the cell medium was replaced with fresh medium containing the compounds diluted at the indicated concentrations. Cells were treated for 24 h. At the end of treatments, the cell medium was collected and kept at −80°C until use, cells were rinsed once with PBS and extracted in 100 μL of Laemmli buffer (10 mM Tris, 20% glycerol, and 2% sodium dodecyl sulfate) using a cell-scraper. The cell lysate was further sonicated (30 pulses of 0.5 s, 60 Hz) for 5 min. Total protein concentration was determined using the Pierce BCA Protein Assay Kit (Thermo Scientific) according to the manufacturer's instructions. Samples were stored at −80°C until analysis.
(§3) 5. Quantification of Secreted Aβ and sAPP […]
(§4) Aβ1-40/Aβ1_42 peptides, Aβx-38/Aβx-40/Aβx-42 and sAPPα/sAPPβ concentrations in […] were determined, respectively, using amyloid-beta 40 and 42 Human ELISA kits (Invitrogen), V-PLEX Plus Aβ Peptide Panel 1 (4G8) Kit (Meso Scale Diagnostics, MSD R©) and sAPPα/sAPPβ multiplex kit (Meso Scale Diagnostics, MSD R©) according to the manufacturer's instructions.
(§5) Compounds of the invention (compounds 16-17, 24-35, 57-58 and 61-72) were evaluated for their ability to modulate APP processing on SYSY human neuroblastoma cell line stably expressing the neuronal isoform of human wild-type APP695 (SY5Y-APP^wt). APP carboxy-terminal fragments (αCTFs and AICD) levels were assessed by western blotting (WB). The effect of reference and test compounds on αCTFs and AICD is expressed as the intensity of corresponding WB bands. The concentration of compounds able to increase 20-times αCTFs and AICD (C20) when compared to the control condition was calculated. Selected compounds were also evaluated for their ability to modulate the secretion of soluble APP fragments (sAPPα and sAPPβ). Aβ1-x levels (Aβ1_40 and Aβ1-42) after treatment with reference and tested compounds were measured in the cell media by ELISA (Table 2). […] Selected hit compounds were then further evaluated for their ability to decrease the level of N-truncated Aβ peptides (Aβx-38, Aβx-40, and Aβx-42). […]

[2] = system: Aβ1-42; test: Aβ1-42 secretion in SY5Y-APPwt cells (ELISA of conditioned media); assay type: cell-based; conditions: Homo sapiens, 24 h, inhibiting 50% of Aβ1-42 secretion, mean ± SD of at least two experiments in triplicate
Method: as §1, §2, §3, §4, §5

[3] = system: αCTF; test: αCTF level in SY5Y-APPwt cells by western blotting; assay type: cell-based; conditions: Homo sapiens, 24 h; concentration to increase αCTF by 20-fold vs untreated; mean of at least three experiments, less than 10% deviation; read-out: αCTF (C20)
Method: as §2
(§6) Cell protein lysates were prepared for western-blot analysis by diluting the sample with 1 volume of NuPAGE® lithium dodecyl sulfate (LDS) 2× sample buffer supplemented with 20% NuPAGE® sample reducing agents (Invitrogen). Samples were heated for 10 min at 100°C Ten μg of total proteins per well were loaded onto precast 4-12% Criterion XT Bis-Tris polyacrylamide gels (Bio-Rad) and electrophoresis was achieved after applying a tension of 150 V during 90 min using a Criterion electrophoresis Cell with the NuPAGE® MOPS SDS running buffer (1×). Proteins were transferred to a nitrocellulose membrane of […] pore size (G&E Healthcare) using the Criterion blotting system and applying a tension of 100 V for 45 min. To resolve proteins of low molecular weights such as carboxy-terminal fragments of APP, 12% Criterion XT Bis-Tris polyacrylamide gels (Bio-Rad) were used and electrophoresis was performed during 70 min at 150 V in a NuPAGE® MES SDS running buffer (1×). […] Protein transfer and quality were determined by a reversible Ponceau Red coloration (0.2% xylidine Ponceau Red and 3% trichloroacetic acid). […] Quantifications of protein expression levels were performed with Image Quant TL (G&E Healthcare). […]
(§7) Compounds of the invention (compounds 16-17, 24-35, 57-58 and 61-72) were evaluated for their ability to modulate APP processing on SYSY human neuroblastoma cell line stably expressing the neuronal isoform of human wild-type APP695 (SY5Y-APP^wt). […]

[4] = system: AICD; test: AICD level in SY5Y-APPwt cells by western blotting; assay type: cell-based; conditions: Homo sapiens, 24 h; concentration to increase AICD by 20-fold vs untreated; mean of at least three experiments, less than 10% deviation; read-out: AICD (C20)
Method: as §2, §6, §7

[5] = Cytotoxicity MTS assay; assay type: cell-based; conditions: human, sy5y-app695wt cells; 50% of cell death after 72 h treatment
Method: Cytotoxicity was measured using 3-(4,5-dimethylthiazol-2-yl)-5-(3-carboxymethoxyphenyl)-2-(4-sulfophenyl)-2H-tetrazolium (MTS) tests. SY5Y-APP^695WT cells were plated in a 96-wells plate at 3.10^4 cells per well and allowed to attach for 24 h. Cells were then incubated for 72 h with 100 μL of DMEM medium with 10% SVF containing (or not) the defined concentration of drugs. Cytotoxicity was determined by using the colorimetric MTS assay (Cell Titer 96® Aqueous One Solution Cell Proliferation Assay-MTS Promega) according to the manufacturer's instructions. Absorbance was read at 490 nm.

[6] = system: sAPPα; test: sAPPα secretion (sAPPα/sAPPβ multiplex kit); assay type: cell-based, human; conditions: for EC (1.5-fold): Homo sapiens, 24 h, concentration to increase sAPPα by 1.5-fold vs untreated, read-out: sAPPα C1.5; for secretion of sAPPα: in words
Method: as §2
Conditioned media of SYSY-APP^695WT collected at the end of treatments were centrifuged at 1000×g for 5 min to eliminate cell debris.
as §4
(§8) Compounds of the invention (compounds 16-17, 24-35, 57-58 and 61-72) were evaluated for their ability to modulate APP processing on SYSY human neuroblastoma cell line stably expressing the neuronal isoform of human wild-type APP695 (SY5Y-APP^wt). APP carboxy-terminal fragments (αCTFs and AICD) levels were assessed by western blotting (WB). The effect of reference and test compounds on αCTFs and AICD is expressed as the intensity of corresponding WB bands. The concentration of compounds able to increase 20-times αCTFs and AICD (C20) when compared to the control condition was calculated. Selected compounds were also evaluated for their ability to modulate the secretion of soluble APP fragments (sAPPα and sAPPβ). Aβ1-x levels (Aβ1_40 and Aβ1-42) after treatment with reference and tested compounds were measured in the cell media by ELISA (Table 2). […] Selected hit compounds were then further evaluated for their ability to decrease the level of N-truncated Aβ peptides (Aβx-38, Aβx-40, and Aβx-42). […] 2015, 6, 559-569; B1: compound 8 of M. Gay et al., Bioorg. Med. Chem. 2018, 26, 2151-2164.
(§9) The activity of compounds of the invention on sAPPα 6 and sAPPβ was further explored. The expression of sAPPβ and sAPPα, which are by-products of β- and α-secretase respectively, were quantified in media of treated cells.

[7] = system: Aβ1-x peptides; test: Aβ1-x (Aβ1-40 and Aβ1-42) secretion; assay type: cell-based, human; conditions: in words
Method: as §2, with “At the end of treatments, the cell medium was collected and kept at −80°C until use, cells were rinsed once with PBS and extracted in 100 μL of Laemmli buffer (10 mM Tris, 20% glycerol, and 2% sodium dodecyl sulfate) using a cell-scraper. The cell lysate was further sonicated (30 pulses of 0.5 s, 60 Hz) for 5 min.” left out, “Samples were stored at −80°C until analysis.” left out
as §4, with “instructions. […]” for “instructions.”

[8] = system: β-secretase; test: β-secretase cleavage of APP; assay type: cell-based, human; conditions: in words
Method: as §8, §9

[9] = system: sAPPβ; test: sAPPβ secretion (sAPPα/sAPPβ multiplex kit); assay type: cell-based; conditions: Homo sapiens; inhibiting 50% of sAPPβ secretion in SY5Y cells; mean ± SD of at least three experiments in triplicate
Method: The human neuroblastoma cell line SY5Y-APP^695WT was maintained in Dulbecco's modified Eagle medium (DMEM, high glucose, pyruvate—GIBCO, Life Technologies) supplemented with 10% fetal bovine serum, 2 mM L-glutamine, 1 mM non-essential amino acids and penicillin/streptomycin (GIBCO, Life Technologies) at 37°C in a 5% CO2 humidified incubator [36]. For compound treatment, a 10 mM stock solution was diluted in freshly supplemented DMEM medium to obtain the precise final concentration of the drug. Cells were plated at a density of 5.10^5 cells per well into 12-well plates and cultured with 1 mL supplemented DMEM cell medium for 24 h before compound exposure. […] Total protein concentration was determined using the Pierce BCA Protein Assay Kit (Thermo Scientific) according to the manufacturer's instructions. […]
as §4, with “instructions. […]” for “instructions.”
as §9

[10] = system: αCTF; conditions: 20-fold increase vs untreated; prior art reference compounds, footnotes e, f cite literature; cited from earlier work
[11] = system: AICD; conditions: 20-fold increase vs untreated; prior art reference compounds, footnotes e, f cite literature; cited from earlier work
[12] = system: SY5Y-APP695WT cells; conditions: 72 h; prior art reference compounds, footnotes e, f cite literature; read-out: Cytotoxicity CC50; cited from earlier work
[13] = system: Aβ; conditions: in words; cited from earlier work
[14] = system: APP-CTFs and AICD; conditions: in words; cited from earlier work
[15] = system: γ-secretase cleavage of Notch; conditions: in words; cited from earlier work

IC50 [1]	IC50 [2]	SMILES	EC (20-fold increase) [3]	EC (20-fold increase) [4]	CC50 at 72 h [5]	EC (1.5-fold) [6]	also measured
12.4 ± 0.6 µM	13.2 ± 0.2 µM	CN(C)CCCc1ccc(-c2nn(-c3cccc(CN(C)CCCN(C)C)c3)cc2CCCN(C)C)cc1 [Compound 35, N′-[[3-[4-[3-(dimethylamino)propyl]-3-[4-[3-(dimethylamino)propyl]phenyl]-1H-pyrazol-1-yl]phenyl]methyl]-N,N,N′-trimethyl-propane-1,3-diamine]	5.1 µM	5.4 µM	> 100 µM	–	–
9.2 ± 0.4 µM	9.7 ± 1.2 µM	CN(C)CCCc1ccc(-c2nn(-c3ccc(CN(C)CCCN(C)C)cc3)cc2CCCN(C)C)cc1 [Compound 33, N′-[[4-[4-[3-(dimethylamino)propyl]-3-[4-[3-(dimethylamino)propyl]phenyl]-1H-pyrazol-1-yl]phenyl]methyl]-N,N,N′-trimethyl-propane-1,3-diamine]	6.1 µM	8.9 µM	> 100 µM	> 10 µM	IC50 [9]: 6.8 ± 0.3 µM
5.7 ± 0.5 µM	8.3 ± 0.2 µM	CN(C)CCCc1ccc(-c2nn(-c3cccc(CN(C)CCCN(C)C)c3)cc2CN(C)C)cc1 [Compound 34, N′-[[3-[4-(dimethylaminomethyl)-3-[4-[3-(dimethylamino)propyl]phenyl]-1H-pyrazol-1-yl]phenyl]methyl]-N,N,N′-trimethyl-propane-1,3-diamine]	1.1 µM	1.9 µM	> 100 µM	> 10 µM	IC50 [9]: 4.5 ± 0.7 µM

The remaining lines, values behind:

SMILES	IC50 [1]	IC50 [2]	EC (20-fold increase) [3]	EC (20-fold increase) [4]	CC50 at 72 h [5]	EC (1.5-fold) [6]	also measured
CN(C)CCCc1ccc(-c2nn(-c3ccc(CN(C)CCCN(C)C)cc3)cc2CN(C)C)cc1 [Compound 32, N′-[[4-[4-(dimethylaminomethyl)-3-[4-[3-(dimethylamino)propyl]phenyl]-1H-pyrazol-1-yl]phenyl]methyl]-N,N,N′-trimethyl-propane-1,3-diamine]	4.2 ± 0.1 µM	6.1 ± 0.3 µM	1.1 µM	1.8 µM	> 100 µM	–	–
Cc1cn(-c2cccc(CN(C)C)c2)nc1-c1ccc(CN(C)CCCN(C)C)cc1 [Compound 67, {[4-(1-{3-[(dimethylamino)methyl]phenyl}-4-methyl-1H-pyrazol-3-yl)phenyl]methyl}-[3-(dimethylamino)propyl]methylamine]	–	–	–	–	–	1.4 µM	secretion of sAPPα [6]: increasing the secretion of sAPPα; Aβ1-x peptides secretion [7]: reduce Aβ1-x peptides secretion; β-secretase cleavage of APP / β-secretase modulatory activity [8]: repressing the β-secretase cleavage of APP
CCN(CC)CCCC(C)Nc1ccnc2cc(Cl)ccc12 (stereo not drawn) [CQ, chloroquine]	–	–	–	–	–	–	αCTF (C20) [10]: >>10 μM; AICD (C20) [11]: >>10 μM; CC50 [12]: 30 µM; Aβ production [13]: inhibit Aβ production; levels of other APP metabolites such as APP-CTFs and AICD [14]: maintained and even increased; γ-secretase cleavage of Notch [15]: remains unmodified
Cc1cn(-c2cccc(CN3CCN(C)CC3)c2)nc1-c1cccc(CN(C)CCCN(C)C)c1 [Compound 71, N,N,N′-trimethyl-N′-[[3-[4-methyl-1-[3-[(4-methylpiperazin-1-yl)methyl]phenyl]pyrazol-3-yl]phenyl]methyl]propane-1,3-diamine]	–	–	–	–	–	1.1 µM	secretion of sAPPα [6]: increasing the secretion of sAPPα; Aβ1-x peptides secretion [7]: reduce Aβ1-x peptides secretion; β-secretase cleavage of APP / β-secretase modulatory activity [8]: repressing the β-secretase cleavage of APP
Cc1cn(-c2cccc(CN(C)CCCN(C)C)c2)nc1-c1ccc(CN(C)CCCN(C)C)cc1 [Compound 69, [3-(dimethylamino)propyl][(4-{1-[3-({[3-(dimethylamino)propyl](methyl)amino}methyl)phenyl]-4-methyl-1H-pyrazol-3-yl}phenyl)methyl]methylamine]	–	–	–	–	–	> 5 µM	–
